Measurements: PubChem BioAssay (NCI)
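Each compound was tested at five concentrations against cells in 96-well plates for 48 hours. The concentration for 50% growth inhibition is given as GI50. TGI is the concentration that stops growth completely.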

Experiments:
Test in all cases: inhibition of tumour cell growth, NCI panel, 48 h
SR leukemia = test system: SR leukemia
UO-31 renal = test system: UO-31 renal
786-0 renal = test system: 786-0 renal
EKVX NSCLC = test system: EKVX NSCLC
SK-MEL-28 melanoma = test system: SK-MEL-28 melanoma
SK-MEL-5 melanoma = test system: SK-MEL-5 melanoma
MDA-MB-435 = test system: MDA-MB-435
MALME-3M melanoma = test system: MALME-3M melanoma
NCI/ADR-RES ovarian = test system: NCI/ADR-RES ovarian
OVCAR-4 ovarian = test system: OVCAR-4 ovarian
SW-620 colon = test system: SW-620 colon
OVCAR-3 ovarian = test system: OVCAR-3 ovarian
HOP-92 NSCLC = test system: HOP-92 NSCLC
RPMI-8226 leukemia = test system: RPMI-8226 leukemia
SF-295 CNS = test system: SF-295 CNS
SN12C renal = test system: SN12C renal
HCC-2998 colon = test system: HCC-2998 colon
A498 renal = test system: A498 renal
HOP-62 NSCLC = test system: HOP-62 NSCLC
MCF7 breast = test system: MCF7 breast
HCT-15 colon = test system: HCT-15 colon
K-562 leukemia = test system: K-562 leukemia
PC-3 prostate = test system: PC-3 prostate
KM12 colon = test system: KM12 colon
RXF 393 renal = test system: RXF 393 renal
T-47D breast = test system: T-47D breast
IGROV1 ovarian = test system: IGROV1 ovarian
MOLT-4 leukemia = test system: MOLT-4 leukemia
SNB-19 CNS = test system: SNB-19 CNS
SF-539 CNS = test system: SF-539 CNS
TK-10 renal = test system: TK-10 renal
HCT-116 colon = test system: HCT-116 colon
BT-549 breast = test system: BT-549 breast
OVCAR-8 ovarian = test system: OVCAR-8 ovarian
SK-OV-3 ovarian = test system: SK-OV-3 ovarian
U251 CNS = test system: U251 CNS
OVCAR-5 ovarian = test system: OVCAR-5 ovarian
HT29 colon = test system: HT29 colon
CAKI-1 renal = test system: CAKI-1 renal
LOX IMVI melanoma = test system: LOX IMVI melanoma
HS 578T breast = test system: HS 578T breast
SK-MEL-2 melanoma = test system: SK-MEL-2 melanoma
UACC-257 melanoma = test system: UACC-257 melanoma
UACC-62 melanoma = test system: UACC-62 melanoma
ACHN renal = test system: ACHN renal
M14 melanoma = test system: M14 melanoma
NCI-H226 lung = test system: NCI-H226 lung
COLO 205 colon = test system: COLO 205 colon
HL-60(TB) leukemia = test system: HL-60(TB) leukemia
NCI-H23 lung = test system: NCI-H23 lung
NCI-H460 lung = test system: NCI-H460 lung
CCRF-CEM leukemia = test system: CCRF-CEM leukemia
DU-145 prostate = test system: DU-145 prostate
SF-268 CNS = test system: SF-268 CNS
NCI-H522 lung = test system: NCI-H522 lung
A549 NSCLC = test system: A549 NSCLC
MDA-MB-231 breast = test system: MDA-MB-231 breast
SNB-75 CNS = test system: SNB-75 CNS

## COc1ccc2[nH]cc(-c3nc(N)nnc3-c3cn(C)c4ccc(Br)cc34)c2c1
SR leukemia
  GI50: 1.19 µM
  TGI: > 100 µM
UO-31 renal
  GI50: 2.31 µM
  TGI: 17.5 µM
786-0 renal
  GI50: 4.23 µM
  TGI: 25.4 µM
EKVX NSCLC
  GI50: 3.95 µM
  TGI: 30.2 µM
SK-MEL-28 melanoma
  GI50: 6.81 µM
  TGI: 22.2 µM
SK-MEL-5 melanoma
  GI50: 2.58 µM
  TGI: 8.5 µM
MDA-MB-435
  GI50: 0.414 µM
  TGI: 1.76 µM
MALME-3M melanoma
  GI50: 3.36 µM
  TGI: 19.8 µM
NCI/ADR-RES ovarian
  GI50: 4.34 µM
  TGI: 50.1 µM
OVCAR-4 ovarian
  GI50: 4.61 µM
  TGI: 84 µM
SW-620 colon
  GI50: 3.85 µM
  TGI: 22.4 µM
OVCAR-3 ovarian
  GI50: 2.9 µM
  TGI: 10.6 µM
HOP-92 NSCLC
  GI50: 2.58 µM
  TGI: 17.3 µM
RPMI-8226 leukemia
  GI50: 3.51 µM
  TGI: > 100 µM
SF-295 CNS
  GI50: 2.8 µM
  TGI: 13 µM
SN12C renal
  GI50: 4.5 µM
  TGI: 22.8 µM
HCC-2998 colon
  GI50: 6.26 µM
  TGI: 23.7 µM
A498 renal
  GI50: 2.11 µM
  TGI: 6.09 µM
HOP-62 NSCLC
  GI50: 4.52 µM
  TGI: 26.2 µM
MCF7 breast
  GI50: 1.22 µM
  TGI: 13.5 µM
HCT-15 colon
  GI50: 2.86 µM
  TGI: 22 µM
K-562 leukemia
  GI50: 1.07 µM
  TGI: > 100 µM
PC-3 prostate
  GI50: 2.62 µM
  TGI: 22.7 µM
KM12 colon
  GI50: 2.86 µM
  TGI: 18.7 µM
RXF 393 renal
  GI50: 1.8 µM
  TGI: 4.68 µM
T-47D breast
  GI50: 3.31 µM
  TGI: 30.1 µM
IGROV1 ovarian
  GI50: 2.89 µM
  TGI: 17.1 µM
MOLT-4 leukemia
  GI50: 3.73 µM
  TGI: > 100 µM
SNB-19 CNS
  GI50: 4.09 µM
  TGI: 20.1 µM
SF-539 CNS
  GI50: 3.11 µM
  TGI: 12 µM
TK-10 renal
  GI50: 6.45 µM
  TGI: 60.2 µM
HCT-116 colon
  GI50: 3.7 µM
  TGI: 23.7 µM
BT-549 breast
  GI50: 4.19 µM
  TGI: 24.8 µM
OVCAR-8 ovarian
  GI50: 4.37 µM
  TGI: > 100 µM
SK-OV-3 ovarian
  GI50: 4.29 µM
  TGI: 32.2 µM
U251 CNS
  GI50: 3.82 µM
  TGI: 26.4 µM
OVCAR-5 ovarian
  GI50: 4.61 µM
  TGI: 30.6 µM
HT29 colon
  GI50: 2.69 µM
  TGI: 12.1 µM
CAKI-1 renal
  GI50: 1.29 µM
  TGI: 19.5 µM
LOX IMVI melanoma
  GI50: 3.89 µM
  TGI: 19.9 µM
HS 578T breast
  GI50: 2.3 µM
  TGI: 8.63 µM
SK-MEL-2 melanoma
  GI50: 4.02 µM
  TGI: 20.8 µM
UACC-257 melanoma
  GI50: 12.4 µM
  TGI: 46.2 µM
UACC-62 melanoma
  GI50: 1.86 µM
  TGI: 11.5 µM
ACHN renal
  GI50: 4.94 µM
  TGI: 32 µM
M14 melanoma
  GI50: 2.66 µM
  TGI: 12.4 µM
NCI-H226 lung
  GI50: 4.29 µM
  TGI: 39.8 µM
COLO 205 colon
  GI50: 3.48 µM
  TGI: 12.6 µM
HL-60(TB) leukemia
  GI50: 3.41 µM
  TGI: > 100 µM
NCI-H23 lung
  GI50: 2.81 µM
  TGI: 13 µM
NCI-H460 lung
  GI50: 3.03 µM
  TGI: 15.6 µM
CCRF-CEM leukemia
  GI50: 3.57 µM
  TGI: > 100 µM
DU-145 prostate
  GI50: 4.23 µM
  TGI: 21.8 µM
SF-268 CNS
  GI50: 5.87 µM
  TGI: 36.1 µM
NCI-H522 lung
  GI50: 2.4 µM
  TGI: 15.4 µM
A549 NSCLC
  GI50: 5.59 µM
  TGI: 90.3 µM
MDA-MB-231 breast
  GI50: 4.48 µM
  TGI: 28.3 µM

## N#Cc1c(NC(=O)c2ccccc2C(F)(F)F)sc2c1CCC(=O)C2
SR leukemia
  GI50: 0.359 µM
  TGI: 5.82 µM
UO-31 renal
  GI50: 0.49 µM
  TGI: 1.82 µM
786-0 renal
  GI50: 3.25 µM
  TGI: > 100 µM
EKVX NSCLC
  GI50: 2.68 µM
  TGI: 11.4 µM
SK-MEL-5 melanoma
  GI50: 1.65 µM
  TGI: 3.47 µM
MDA-MB-435
  GI50: 1.97 µM
  TGI: 5.86 µM
NCI/ADR-RES ovarian
  GI50: 1.31 µM
  TGI: 5.18 µM
SW-620 colon
  GI50: 0.427 µM
  TGI: 2.52 µM
RPMI-8226 leukemia
  GI50: 0.272 µM
  TGI: 0.954 µM
SF-295 CNS
  GI50: 2.58 µM
  TGI: 7.05 µM
SN12C renal
  GI50: 2.5 µM
  TGI: 15.9 µM
HCC-2998 colon
  GI50: 2.91 µM
  TGI: 11.5 µM
A498 renal
  GI50: 10.5 µM
  TGI: 25 µM
HOP-62 NSCLC
  GI50: 3.12 µM
  TGI: > 100 µM
MCF7 breast
  GI50: 1.39 µM
  TGI: 10.3 µM
HCT-15 colon
  GI50: 0.405 µM
  TGI: 1.85 µM
K-562 leukemia
  GI50: 0.378 µM
  TGI: 11.3 µM
PC-3 prostate
  GI50: 0.384 µM
  TGI: 15.6 µM
KM12 colon
  GI50: 3.44 µM
  TGI: 13.9 µM
RXF 393 renal
  GI50: 1.05 µM
  TGI: 2.8 µM
T-47D breast
  GI50: 0.374 µM
  TGI: 3.24 µM
IGROV1 ovarian
  GI50: 2.37 µM
  TGI: 13.1 µM
MOLT-4 leukemia
  GI50: 1.61 µM
  TGI: 16.7 µM
SNB-19 CNS
  GI50: 3.37 µM
  TGI: > 100 µM
SF-539 CNS
  GI50: 0.48 µM
  TGI: 1.91 µM
TK-10 renal
  GI50: 1.64 µM
  TGI: 9.83 µM
HCT-116 colon
  GI50: 0.363 µM
  TGI: 4.89 µM
BT-549 breast
  GI50: 1.09 µM
  TGI: 8.62 µM
OVCAR-8 ovarian
  GI50: 1.68 µM
  TGI: > 100 µM
SK-OV-3 ovarian
  GI50: 4.87 µM
  TGI: 50.4 µM
U251 CNS
  GI50: 1.24 µM
  TGI: > 100 µM
OVCAR-5 ovarian
  GI50: 1.48 µM
  TGI: 3.81 µM
HT29 colon
  GI50: 0.771 µM
  TGI: 9.17 µM
CAKI-1 renal
  GI50: 0.785 µM
  TGI: 2.56 µM
HS 578T breast
  GI50: 1.95 µM
  TGI: 8.36 µM
SNB-75 CNS
  GI50: 1.63 µM
  TGI: 6.1 µM
SK-MEL-2 melanoma
  GI50: 2.65 µM
  TGI: 7.02 µM
UACC-257 melanoma
  GI50: 2.21 µM
  TGI: 6.48 µM
UACC-62 melanoma
  GI50: 1.18 µM
  TGI: 2.96 µM
ACHN renal
  GI50: 0.433 µM
  TGI: 1.48 µM
M14 melanoma
  GI50: 2.09 µM
  TGI: 9.33 µM
NCI-H226 lung
  GI50: 2.09 µM
  TGI: 5.94 µM
COLO 205 colon
  GI50: 1.87 µM
  TGI: 3.74 µM
HL-60(TB) leukemia
  GI50: 0.405 µM
  TGI: 4.02 µM
NCI-H23 lung
  GI50: 1.04 µM
  TGI: 9.28 µM
NCI-H460 lung
  GI50: 3.35 µM
  TGI: 19 µM
CCRF-CEM leukemia
  GI50: 0.325 µM
  TGI: 14.9 µM
DU-145 prostate
  GI50: 4.67 µM
  TGI: > 100 µM
SF-268 CNS
  GI50: 3.31 µM
  TGI: 34 µM
NCI-H522 lung
  GI50: 0.36 µM
  TGI: 2.58 µM
A549 NSCLC
  GI50: 3.67 µM
  TGI: 29.2 µM
MDA-MB-231 breast
  GI50: 2.08 µM
  TGI: 5.43 µM
